We go through one substance from patent US11078262B2, “High viscosity macromolecular compositions for treating ocular conditions” (ALLERGAN, INC., priority 2007, dated 2021).

The series deals with macula edema with central retinal vein occlusion and/or branch retinal vein occlusion. As to the kind of experiment: Treatment of macular edema with intravitreal MAAC composition (ETDRS visual acuity). Particulars: patient; 1 mg intravitreal every 4 months; twelve months after the first injection. It counts as in vivo, human. Here is the method: An obese patient with symptoms of diabetes presents with vision loss due to macula edema with central retinal vein occlusion and/or branch retinal vein occlusion. They receive intravitreal injection of 1 mg of a high viscosity MAAC (polymeric hyaluronate based) solution containing COMPOUND D, such as the Example 13 formulation. Equivalent injections are made every 4 months.

For “siRNA Z (chain 1 CUGAGUUUAAAAGGCACCCTT; chain 2 TTGACUCAAAUUUUCCGUGGG; chemically modified, pattern not given here; one strand is listed 3' to 5') [COMPOUND D]”, the “improved best corrected visual acuity from baseline (ETDRS chart)” value is reported as “fifteen”.
